A short description of series [1]: Relative volatility by thermo-gravimetric analysis. It is filed as physicochemical. The following applies: TGA at 120° C. How it is done:
Using a TA Instruments (New Castle, Del.) Model TGA 2050 thermo-gravimetric analyzer, a typical thermo-gravimetric analysis (TGA) is carried out by (a) weighing out 10-20 mg of the sample, (b) loading it into an aluminum or platinum holding pan, and (c) measuring and recording the mass loss of the sample over time at a constant temperature of 120° C. The volatility of the sample is obtained as the rate of mass loss per unit time when the loss rate becomes constant (reaches steady state).
Relative volatility is defined as the ratio of the volatility of a given 2,4-D or triclopyr sample over that of the corresponding 2,4-D DMA or triclopyr triethylamine salt that was arbitrarily set at 100.

The next series can be described thus: Eye irritation testing. The following applies: 456 gae/L, 21 days after application, most sensitive animal; for Eye irritation score, Iris: maximum 2; for Eye irritation score, Cornea: maximum 4; for Eye irritation score, Conjunctivae: maximum 10. It is filed as in vivo, New Zealand albino rabbit. How it is done:
Eye irritation testing was done according to guideline testing requirements specified in: (1) OECD Guideline for the Testing of Chemicals, Procedure 405 (2002), (2) U.S. EPA Health Effects Test Guidelines, OPPTS 870.2400 (1998), (3) JMAFF 12-Nouan-1847 (2000) and (4) Official Journal of the European Communities, Methods for the Determination of Toxicity, Part B.5 (Eye Irritation), Directive 2004/73/ED, 29 Apr. 2004.
Test material formulations were administered to New Zealand albino rabbit (1 to 3 animals per formulation) to determine the potential to produce eye irritation. The material was applied in a single dose to the conjuctival sac of one eye of each animal. The other eye remained untreated and served as a control. Irritation of the cornea, iris and conjunctivae were evaluated 21 days after application of the test material.
The results are reported as irritation present in the cornea, iris and conjunctivae in the most sensitive animal 21 days after application. Testing was conducted with the following concentrates: (1) 2,4-D PEI complex (Lupasol® G20 complex, 456 grams acid equivalent per liter (gae/l)), (2) 2,4-D DMA (dimethyl ammonium salt, 456 gae/l), (3) 2,4-D DMEA (dimethylethyl ammonium salt, 456 gae/l), (4) 2,4-D IPA (isopropyl ammonium salt, 456 gae/l), and (5) 2,4-D TIPA (triisopropanol ammonium salt, 456 gae/l).

[2] abbreviates: ratio to 2,4-D DMA salt set at 100.
Where [3] appears, read: ratio to triclopyr triethylamine salt set at 100.

As to `O=C(O)COc1ccc(Cl)cc1Cl` [2,4-D acid tech, 2,4-dichlorophenoxyacetic acid], the Relative volatility in series [1] (setting [2]) came out at 249.

`CNC.O=C(O)COc1ccc(Cl)cc1Cl` [2,4-D DMA salt, 2,4-D dimethylamine (DMA) salt]: in the series “Eye irritation testing”, the “Eye irritation score, Iris” value was found to be 1; the “Eye irritation score, Cornea” value was determined as 3; the “Eye irritation score, Conjunctivae” value was found to be 3. Moreover, in series [1] (setting [2]), the Relative volatility amounted to 100.

For `CCCCC(CC)COC(=O)COc1ccc(Cl)cc1Cl` (stereo not drawn) [2,4-D ethylhexyl ester], the Relative volatility in series [1] (setting [2]) came out at 1201.

As for `CC(C)N.O=C(O)COc1ccc(Cl)cc1Cl` [2,4-D IPA], in “Eye irritation testing”, the “Eye irritation score, Iris” value is on record as 0; the “Eye irritation score, Cornea” value was determined as 4; the “Eye irritation score, Conjunctivae” value was 6.

Take `O=C(O)COc1nc(Cl)c(Cl)cc1Cl` [triclopyr acid]: the Relative volatility in series [1] (setting [3]) is listed as 135.

`CCCCOCCOC(=O)COc1nc(Cl)c(Cl)cc1Cl` [triclopyr butoxyethyl ester]: the Relative volatility in series [1] (setting [3]) stood at 302.

Take `CC(O)CN(CC(C)O)CC(C)O.O=C(O)COc1ccc(Cl)cc1Cl` (stereo not drawn) [2,4-D TIPA]: in the series “Eye irritation testing”, the “Eye irritation score, Iris” value is 0; the “Eye irritation score, Cornea” value stood at 3; the “Eye irritation score, Conjunctivae” value is on record as 1.

Regarding `CCN(CC)CC.O=C(O)COc1nc(Cl)c(Cl)cc1Cl` [triclopyr triethylamine salt], the Relative volatility in series [1] (setting [3]) turned out to be 100.

Values taken from US20130045869A1, “COMPLEXES OF HERBICIDAL CARBOXYLIC ACIDS AND AMINE-CONTAINING POLYMERS OR OLIGOMERS” (Dow AgroSciences LLC, priority 2011, published 2013).
